Values of other authors, collected in patent publication US20020028792A1, “Combinations of bisphosphonates, estrogens and estrogenic agents” (American Home Products Corporation, priority 2000, published 2002).

Settings: Paget's disease of the bone; 30-mg tablets

Q: Which “effectiveness in clinical trials” value does the source give for `O=P(O)(O)C(O)(Cc1cccnc1)P(=O)(O)O` [Risedronate] here?
A: The value was “effective”.
